Data: article PMC10376691, “Inhibition of Acetylcholinesterase and Amyloid-β Aggregation by Piceatannol and Analogs: Assessing In Vitro and In Vivo Impact on a Murine Model of Scopolamine-Induced Memory Impairment” (Antioxidants, 2023)
“Also recorded” adds a separate entry of the source.

Key:
[1] = DPPH radical scavenging activity
Protocol: DPPH radical scavenging activity was assayed following a previous report, with some modifications. […] DMSO was used instead of a sample solution in the blank group. […] The scavenging activity of the DPPH radical (%) was calculated with the following equation: (△A515blank − △A515sample) ÷ △A515blank × 100%. The IC50 of the DPPH radical scavenging activity of PIC and its analogs or that of Trolox was calculated from each linear equation by three test concentrations and their radical scavenging activities.

[2] = molecular target: T1, recombinant human AChE (Homo sapiens, UniProt P22303); assay: AChE inhibitory activity in vitro (acetylthiocholine/DTNB); assay type: biochemical
T1 construct: purchased R&D Systems Inc. (Minneapolis, MN, USA)
Protocol: Commercially synthesized acetylthiocholine iodide was hydrolyzed using AChE to release thiocholine, which was coupled with DTNB to generate the yellowish 5-thio-2-nitrobenzoate for in vitro AChE activity assays. For the AChE inhibitory activity assay, each analog was dissolved in the DMSO, and final concentrations of 100, 200, and 500 μM were used for comparisons. An equal volume of DMSO instead of the sample solution was used in the blank group and expressed as 100% AChE activity. […] AChE inhibition (%) was calculated as follows: [(A405blank − A405sample)/(A405blank)] × 100%.

[3] = molecular target: T2, Aβ peptide (1–42) (Homo sapiens, UniProt P05067); assay: biochemical
T2 construct: The Aβ peptide (1–42) was synthesized and purchased from Kelowna International Scientific Inc; purchased Kelowna International Scientific Inc. (New Taipei, Taiwan); host or cells: chemical synthesis
Protocol: To prepare the 10 μM Aβ peptide working solution, commercial Aβ peptide was first weighted and dissolved in HFIP to 1 mM. Next, the solvent was evaporated in a hood and then re-dissolved using 100 μL of 60 mM NaOH. It was then diluted to 10 μM working solutions with 50 mM phosphate buffer (pH 7.4, containing 150 mM sodium chloride and 1 mM EDTA), following previous reports. […] DMSO instead of the sample solution was used as the control. The 50 mM phosphate buffer was used instead of the Aβ working solution as the sample blank. […] The IC50 of the inhibition against the Aβ aggregation of PIC and its analogs was calculated from each linear equation using three test concentrations and their inhibition capacities.

[4] = tested on: SH-SY5Y cells; assay: Neurite outgrowth and cell viability, two-color fluorescence assay kit; assay type: cell-based; conditions: 10 μM, 3-day or 6-day treatment, orange-red fluorescence; vs control
Protocol: (§1) The SH-SY5Y cells were grown in DMEM/F-12 medium supplemented with 10% FBS at 37 °C under a humidified atmosphere and 5% CO2 [41]. […] The MTT was used to evaluate cell viability, and the absorbance at 570 nm was determined. The DMSO used instead of the sample solution was blank (recognized as 100%), and each treatment was expressed as relative cell viability (%). To study the stimulation of neurite outgrowth, the SH-SY5Y cells (5000 cells/well) were seeded on a 96-well plate pre-coated with poly-L-lysine and then cultured in the DMEM/F-12 medium containing 10% FBS overnight at 37 °C under a humidified atmosphere and 5% CO2. After being removed from the culture medium, each PIC, GNT, RHA, and isoRHA (at a final concentration of 10 μM in the 0.1%DMSO) or 0.1% DMSO (the control) was added to the DMEM/F-12 medium containing 10% FBS and refreshed every three days. On day 3 and day 6, each of the culture plates was photographed using an inverted microscope (ECLIPSE TS100, Nikon Instruments Inc., Tokyo, Japan). The culture medium was removed and washed with PBS, and the cultured cells in each well were fixed with 4% paraformaldehyde. To measure cell viability and quantify the neurite outgrowths of the treated SH-SY5Y in a 96-well plate, the neurite outgrowth staining kit (a two-color fluorescence assay kit) was used, following a previous report or the protocol in the manufacturer’s manual (publication number: MAN0007224), which included a cell membrane-stained fluorescent dye (orange-red fluorescence), a cell viability indicator (green fluorescence), and a reagent for background masking. […] The value for the control was recognized as 100%, and each treatment was expressed relative to the control.

[5] = as above; assay type: cell-based; conditions: human, 3-day or 6-day treatment, green fluorescence, read-out: cell viability relative to the control
Protocol: as §1

[6] = tested on: db/db mice; conditions: oral 50 mg/kg for 2–3 weeks; cited from earlier work
[7] = molecular target: T3, mouse AChE activity in the brain extracts (Mus musculus, UniProt P21836); assay: AChE activity in brain extracts of scopolamine-induced ICR mice; assay type: in vivo; conditions: PIC 50 mg/kg, donepezil 5 mg/kg oral; vs control p < 0.05
T3 construct: The protein content of the whole brain extracts from the mice was quantified using the BCA protein kit; from tissue; host or cells: whole brain extract of scopolamine-induced ICR mice
T3 sequence (P21836 32-614): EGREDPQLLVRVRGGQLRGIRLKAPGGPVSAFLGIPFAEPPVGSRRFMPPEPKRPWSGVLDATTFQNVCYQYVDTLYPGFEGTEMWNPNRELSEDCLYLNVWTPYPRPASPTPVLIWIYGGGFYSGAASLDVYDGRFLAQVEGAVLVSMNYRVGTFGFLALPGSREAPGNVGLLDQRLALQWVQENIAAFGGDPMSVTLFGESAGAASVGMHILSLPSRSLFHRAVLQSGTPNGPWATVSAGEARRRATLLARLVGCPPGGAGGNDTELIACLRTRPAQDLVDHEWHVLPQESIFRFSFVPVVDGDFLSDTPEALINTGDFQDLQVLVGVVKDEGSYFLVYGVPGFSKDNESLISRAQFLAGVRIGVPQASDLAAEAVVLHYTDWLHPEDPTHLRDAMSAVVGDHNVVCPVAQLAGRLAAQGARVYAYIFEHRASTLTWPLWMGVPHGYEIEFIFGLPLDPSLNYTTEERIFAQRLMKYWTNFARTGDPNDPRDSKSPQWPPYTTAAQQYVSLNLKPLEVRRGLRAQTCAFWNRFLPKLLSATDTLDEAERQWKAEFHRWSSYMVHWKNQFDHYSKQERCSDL
Protocol: The AChE activities in the mouse brain tissue extract were assayed following the method in Section 2.3, with some modifications. The protein content of the whole brain extracts from the mice was quantified using the BCA protein kit, with bovine serum albumin as the standard protein.

[8] = after oral RSV 75 mg/kg, athymic nude mice; cited from earlier work

T1 sequence (P22303 32-614): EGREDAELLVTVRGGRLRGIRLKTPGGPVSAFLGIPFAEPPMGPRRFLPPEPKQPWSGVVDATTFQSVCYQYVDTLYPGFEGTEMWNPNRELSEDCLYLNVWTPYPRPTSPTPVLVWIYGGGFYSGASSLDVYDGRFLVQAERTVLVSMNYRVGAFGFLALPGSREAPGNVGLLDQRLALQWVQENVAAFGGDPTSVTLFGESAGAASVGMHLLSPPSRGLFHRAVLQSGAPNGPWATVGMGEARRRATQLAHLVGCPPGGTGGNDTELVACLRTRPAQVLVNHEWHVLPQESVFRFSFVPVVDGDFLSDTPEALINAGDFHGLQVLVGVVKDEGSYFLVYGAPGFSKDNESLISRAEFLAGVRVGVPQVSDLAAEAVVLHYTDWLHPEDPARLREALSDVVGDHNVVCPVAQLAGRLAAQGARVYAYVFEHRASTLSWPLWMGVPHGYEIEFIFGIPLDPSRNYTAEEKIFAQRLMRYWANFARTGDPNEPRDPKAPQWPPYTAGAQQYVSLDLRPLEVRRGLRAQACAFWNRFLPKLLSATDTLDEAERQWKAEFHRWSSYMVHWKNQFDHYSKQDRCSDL
T2 sequence (P05067 672-713): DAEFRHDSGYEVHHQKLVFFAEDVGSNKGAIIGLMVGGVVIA

Compound: Oc1cc(O)cc(C=Cc2ccc(O)c(O)c2)c1 [PIC, 3,5,3′,4′-tetrahydroxystilbene]
- IC50 ([1]; 120 μM DPPH in methanol, 37 °C, 20 min): 40.2 µM
- DPPH scavenging capacity, fold higher than that of RSV ([1]; ratio of IC50, vs RSV): 2.5 fold
- DPPH scavenging capacity, fold higher than that of Trolox ([1]; ratio of IC50, vs Trolox): 2.07 fold
- IC50 [2]: 282 µM
- AChE inhibitory capacity, fold higher than that of RSV ([2]; vs RSV): 1.23 fold
- IC50 [3]: 0.48 µM
- anti-Aβ aggregation capacity, fold higher than that of RSV ([3]; vs RSV): 2.94 fold
- stimulation of neurite outgrowths [4]: not PIC nor GNT; also recorded: not PIC and GNT
- viability at 10 µM [5]: 80%
- blood glucose levels [6]: reduce blood glucose levels
- AChE activity in the brain extracts [7]: reductions in AChE activities
- PIC detected in the liver [8]: 11.50 nmol/g
- PIC detected in the plasma [8]: 5.25 µmol/L
- PIC detected in the skin [8]: 2.4 nmol/g
